The first experiment deals with T1, human PDE4B1 (Homo sapiens, UniProt Q07343).
T1 construct: host or cells: Sf9 cells
T1 sequence (Q07343 whole entry): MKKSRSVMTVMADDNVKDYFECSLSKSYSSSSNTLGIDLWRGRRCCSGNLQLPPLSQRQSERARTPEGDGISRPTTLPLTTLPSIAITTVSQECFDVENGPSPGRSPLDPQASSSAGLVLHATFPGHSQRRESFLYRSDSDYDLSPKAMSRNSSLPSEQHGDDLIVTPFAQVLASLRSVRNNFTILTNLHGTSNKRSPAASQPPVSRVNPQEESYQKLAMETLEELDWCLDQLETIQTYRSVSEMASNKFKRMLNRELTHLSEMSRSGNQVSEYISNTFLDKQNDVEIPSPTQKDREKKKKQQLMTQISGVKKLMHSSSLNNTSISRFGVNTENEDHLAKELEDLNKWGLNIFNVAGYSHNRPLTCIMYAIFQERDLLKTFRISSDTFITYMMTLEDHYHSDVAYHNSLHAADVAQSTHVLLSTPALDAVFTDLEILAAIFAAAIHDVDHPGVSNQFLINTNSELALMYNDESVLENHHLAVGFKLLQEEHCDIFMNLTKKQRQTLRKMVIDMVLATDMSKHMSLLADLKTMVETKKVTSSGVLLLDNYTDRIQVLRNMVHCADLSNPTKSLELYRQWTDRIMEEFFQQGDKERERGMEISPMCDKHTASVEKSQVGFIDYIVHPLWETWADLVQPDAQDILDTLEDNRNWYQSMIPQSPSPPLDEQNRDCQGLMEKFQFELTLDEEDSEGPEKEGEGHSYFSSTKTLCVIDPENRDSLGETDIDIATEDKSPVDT
Description: TR-FRET assay using the LANCE Ultra cAMP kit to determine the activity of hPDE4B1. It counts as biochemical. The settings on record: test concentration 1 μM, 1 µM. An excerpt:
TR-FRET Assay Using the LANCE® Ultra cAMP Kit to Determine the Activity of hPDE4B1
The effects of the compounds on the activity of the human PDE4B1 was quantified by measuring the production of 5′AMP from cAMP using a human recombinant enzyme expressed in Sf9 cells and the LANCE® Ultra cAMP kit, a TR-FRET detection method from PerkinElmer. The human PDE4B1 enzyme was purchased from SignalChem Lifesciences (Catalog# P92-31BG, Lot# H296-2).
The test compound, reference compound or water (control) was mixed with the enzyme (0.96 U) in a reaction buffer containing 50 mM Tris-HCl, 50 mM MgCl2 and 5 mM DTT (pH 8.5). Thereafter, the reaction was initiated by addition of 500 nM cAMP (substrate) and the mixture was incubated for 30 minutes at room temperature. For control basal measurements, the enzyme was omitted from the reaction mixture. After 30 minutes, the reaction was stopped and diluted by a factor of 100 with the reaction buffer supplemented with 500 μM IBMX. The fluorescence donor (europium chelate-labeled cAMP) and the fluorescence acceptor (anti-cAMP antibody labeled with the ULight™ dye) were then added together with 500 μM IBMX to a 10 μl aliquot. After 60 minutes, the fluorescence transfer corresponding to the amount of residual cAMP was measured at λex=337 nm, λem=620 nm and λem=665 nm using a microplate reader (PHERAstar, BMG). The enzyme activity was determined by dividing the signal measured at 665 nm by that measured at 620 nm (ratio) multiplied by 10000. The results were expressed as percent inhibition of the control enzyme activity. IC50 values (IC50=concentration causing a half-maximal inhibition of control specific activity) were derived from dose response measurements with ten different concentrations (n=3; N=1-3).
On the technique in general: TR-FRET usually uses a lanthanide donor and a delayed reading to cut background.
Take `CC(O)c1ccnc(-c2cnc(-n3cc([S+](C)[O-])c4ccc(C(=O)N5CCOCC5)cc43)nc2)c1` (stereo not drawn) [Example 300, (1-(5-(4-(1-Hydroxyethyl)pyridin-2-yl)pyrimidin-2-yl)-3-(methylsulfinyl)-1H-indol-6-yl)(morpholino)methanone]: the “Inhibition in % (inhibition of PDE4B)” value is on record as 93%.

The same experiment, now with this note: test concentration 1 μM, read-out: Inhibition in % (inhibition of PDE4B).
By inhibition is commonly meant the relative decrease from the control value, in per cent. `C[S+]([O-])c1cn(-c2ncc(-c3cc(NCC4CC4)ccn3)cn2)c2cc(C(=O)N3CCOCC3)ccc12` (stereo not drawn) [Example 296, (1-(5-(4-((Cyclopropylmethyl)amino)pyridin-2-yl)pyrimidin-2-yl)-3-(methylsulfinyl)-1H-indol-6-yl)(morpholino)methanone]: the inhibition at 1 µM turned out to be 97%.
Same read-out and setting: in the case of `C[S+]([O-])c1cn(-c2ncc(-c3cc(N4CCCC4)ccn3)cn2)c2cc(C(=O)N3CCOCC3)ccc12` (stereo not drawn) [Example 297, (3-(Methylsulfinyl)-1-(5-(4-(pyrrolidin-1-yl)pyridin-2-yl)pyrimidin-2-yl)-1H-indol-6-yl)(morpholino)methanone] it was 93%.
On to `CCNc1ccnc(-c2cnc(-n3cc([S+](C)[O-])c4ccc(C(=O)N5CCOCC5)cc43)nc2)c1` (stereo not drawn) [Example 298, (1-(5-(4-(Ethylamino)pyridin-2-yl)pyrimidin-2-yl)-3-(methylsulfinyl)-1H-indol-6-yl)(morpholino)methanone], for which the inhibition at 1 µM came out at 119%.
For the compound `C[S+]([O-])c1cn(-c2ncc(-c3cc(Cl)ccn3)cn2)c2cc(C(=O)N3CCOCC3)ccc12` (stereo not drawn) [Example 299, (1-(5-(4-Chloropyridin-2-yl)pyrimidin-2-yl)-3-(methylsulfinyl)-1H-indol-6-yl)(morpholino)methanone], the inhibition at 1 µM is 94%.
Still for that read-out and setting: in the case of `C[S+]([O-])c1cn(-c2ncc(-c3ccccc3F)cn2)c2cc(C(=O)N3CC=CCC3)ccc12` (stereo not drawn) [Example 306, (5,6-Dihydropyridin-1(2H)-yl)(1-(5-(2-fluorophenyl)pyrimidin-2-yl)-3-(methylsulfinyl)-1H-indol-6-yl)methanone] it was 80%.
Same read-out and setting: for `CN(CCCO)C(=O)c1ccc2c([S+](C)[O-])cn(-c3ncc(-c4ccccc4F)cn3)c2c1` (stereo not drawn) [Example 307, 1-(5-(2-Fluorophenyl)pyrimidin-2-yl)-N-(3-hydroxypropyl)-N-methyl-3-(methylsulfinyl)-1H-indole-6-carboxamide] the value was 82%; for `CN(C)C(=O)c1ccc2c([S+](C)[O-])cn(-c3ncc(-c4ccccn4)cn3)c2c1` (stereo not drawn) [Example 313, N,N-Dimethyl-3-(methylsulfinyl)-1-(5-(pyridin-2-yl)pyrimidin-2-yl)-1H-indole-6-carboxamide], 92%.

The experiment is the same for the next values; noted with them: test concentration 10 μM (marked in cell), read-out: Inhibition in % (inhibition of PDE4B).
Take `C[S+]([O-])c1cn(-c2ncc(-c3cc(C4(O)CC4)ccc3F)cn2)c2cc(C(=O)N3CCOCC3)ccc12` (stereo not drawn) [Example 294, (1-(5-(2-Fluoro-5-(1-hydroxycyclopropyl)phenyl)pyrimidin-2-yl)-3-(methylsulfinyl)-1H-indol-6-yl)(morpholino)methanone]: the inhibition at 10 µM came out at 98%.
Still for that read-out and setting: in the case of `C[S+]([O-])c1cn(-c2ncc(-c3cc(C4(O)CC4)ccn3)cn2)c2cc(C(=O)N3CCOCC3)ccc12` (stereo not drawn) [Example 295, (1-(5-(4-(1-Hydroxycyclopropyl)pyridin-2-yl)pyrimidin-2-yl)-3-(methylsulfinyl)-1H-indol-6-yl)(morpholino)methanone] it was 98%.
On to `C[S+]([O-])c1cn(-c2ncc(-c3cc(N4CCCC4)ccn3)cn2)c2cc(C(=O)N3CCOCC3)ccc12` (stereo not drawn) [Example 301, (3-(Methylsulfinyl)-1-(5-(4-(pyrrolidin-1-yl)pyridin-2-yl)pyrimidin-2-yl)-1H-indol-6-yl)(morpholino)methanone], for which the inhibition at 10 µM worked out at 99%.
The same measure, in the same setting: in the case of `C[S+]([O-])c1cn(-c2ncc(-c3ccccc3F)cn2)c2cc(C(=O)N3CC[C@@H](CO)C3)ccc12` (stereo partly drawn) [Example 302, (1-(5-(2-Fluorophenyl)pyrimidin-2-yl)-3-(methylsulfinyl)-1H-indol-6-yl)((R)-3-(hydroxymethyl)pyrrolidin-1-yl)methanone] it was 103%; in that of `C[S+]([O-])c1cn(-c2ncc(-c3ccccc3F)cn2)c2cc(C(=O)N3CC[C@H](CO)C3)ccc12` (stereo partly drawn) [Example 303, (1-(5-(2-Fluorophenyl)pyrimidin-2-yl)-3-(methylsulfinyl)-1H-indol-6-yl)((S)-3-(hydroxymethyl)pyrrolidin-1-yl)methanone], 99%.
On the same count and under the same terms, in the case of `CNC(=O)CN(C)C(=O)c1ccc2c([S+](C)[O-])cn(-c3ncc(-c4cc(C)ccc4F)cn3)c2c1` (stereo not drawn) [Example 304, 1-(5-(2-Fluoro-5-methylphenyl)pyrimidin-2-yl)-N-methyl-N-(2-(methylamino)-2-oxoethyl)-3-(methylsulfinyl)-1H-indole-6-carboxamide] it was 115%; in that of `CNC(=O)CN(C)C(=O)c1ccc2c(S(C)(=O)=O)cn(-c3ncc(-c4cc(C)ccc4F)cn3)c2c1` [Example 305, 1-(5-(2-Fluoro-5-methylphenyl)pyrimidin-2-yl)-N-methyl-N-(2-(methylamino)-2-oxoethyl)-3-(methylsulfonyl)-1H-indole-6-carboxamide], 85%.
Still for that read-out and setting: for `C[S+]([O-])c1cn(-c2ncc(-c3ccccc3F)cn2)c2cc(C(=O)N3C[C@@H]4C[C@H]3CO4)ccc12` (stereo partly drawn) [Example 308, (1S,4S)-2-Oxa-5-azabicyclo[2.2.1]heptan-5-yl(1-(5-(2-fluorophenyl)pyrimidin-2-yl)-3-(methylsulfinyl)-1H-indol-6-yl)methanone] the value was 101%; for `CS(=O)(=O)c1cn(-c2ncc(-c3ccccc3F)cn2)c2cc(C(=O)N3C[C@@H]4C[C@H]3CO4)ccc12` [Example 309, (1S,4S)-2-Oxa-5-azabicyclo[2.2.1]heptan-5-yl(1-(5-(2-fluorophenyl)pyrimidin-2-yl)-3-(methylsulfonyl)-1H-indol-6-yl)methanone], 97%; for `COc1ccc(F)c(-c2cnc(-n3cc(S(C)(=O)=O)c4ccc(C(=O)N(C)CC(N)=O)cc43)nc2)c1` [Example 310, N-(2-Amino-2-oxoethyl)-1-(5-(2-fluoro-5-methoxyphenyl)pyrimidin-2-yl)-N-methyl-3-(methylsulfonyl)-1H-indole-6-carboxamide], 91%.
For `CCc1ccc(F)c(-c2cnc(-n3cc(S(C)(=O)=O)c4ccc(C(=O)N(C)CC(N)=O)cc43)nc2)c1` [Example 311, N-(2-Amino-2-oxoethyl)-1-(5-(5-ethyl-2-fluorophenyl)pyrimidin-2-yl)-N-methyl-3-(methylsulfonyl)-1H-indole-6-carboxamide], the inhibition at 10 µM was 98%.
As to `CS(=O)(=O)c1cn(-c2ncc(-c3cc(Cl)ccn3)cn2)c2cc(C(=O)N3CCOCC3)ccc12` [Example 312, (1-(5-(4-Chloropyridin-2-yl)pyrimidin-2-yl)-3-(methylsulfonyl)-1H-indol-6-yl)(morpholino)methanone], the inhibition at 10 µM was found to be 93%.
As for `Cc1cccc(-c2cnc(-n3cc([S+](C)[O-])c4ccc(C(=O)N(C)C)cc43)nc2)n1` (stereo not drawn) [Example 314, N,N-Dimethyl-1-(5-(6-methylpyridin-2-yl)pyrimidin-2-yl)-3-(methylsulfinyl)-1H-indole-6-carboxamide], the inhibition at 10 µM was determined as 98%.
Still for that read-out and setting: in the case of `Cc1ccc(F)c(-c2cnc(-n3cc([S+](C)[O-])c4ccc(C(=O)N(C)CCO)cc43)nc2)c1` (stereo not drawn) [Example 315, 1-(5-(2-Fluoro-5-methylphenyl)pyrimidin-2-yl)-N-(2-hydroxyethyl)-N-methyl-3-(methylsulfinyl)-1H-indole-6-carboxamide] it was 97%.
Same read-out and setting: for `CCOc1ccc(F)c(-c2cnc(-n3cc([S+](C)[O-])c4ccc(C(=O)N(C)CCO)cc43)nc2)c1` (stereo not drawn) [Example 316, 1-(5-(5-Ethoxy-2-fluorophenyl)pyrimidin-2-yl)-N-(2-hydroxyethyl)-N-methyl-3-(methylsulfinyl)-1H-indole-6-carboxamide] the value was 98%; for `Cc1ccnc(-c2cnc(-n3cc([S+](C)[O-])c4ccc(C(=O)N(C)CCO)cc43)nc2)c1` (stereo not drawn) [Example 317, N-(2-Hydroxyethyl)-N-methyl-1-(5-(4-methylpyridin-2-yl)pyrimidin-2-yl)-3-(methylsulfinyl)-1H-indole-6-carboxamide], 87%; for `Cc1ccnc(-c2cnc(-n3cc(C(C)O)c4ccc(C(=O)N5CCOCC5)cc43)nc2)c1` (stereo not drawn) [Example 318, (3-(1-Hydroxyethyl)-1-(5-(4-methylpyridin-2-yl)pyrimidin-2-yl)-1H-indol-6-yl)(morpholino)methanone], 96%.
Same read-out and setting: in the case of `CCOc1ccc(F)c(-c2cnc(-n3cc(C(C)O)c4ccc(C(=O)N5CCOCC5)cc43)nc2)c1` (stereo not drawn) [Example 319, (1-(5-(5-Ethoxy-2-fluorophenyl)pyrimidin-2-yl)-3-(1-hydroxyethyl)-1H-indol-6-yl)(morpholino)methanone] it was 99%.
Consider `Cc1ccc(F)c(-c2cnc(-n3cc(C(C)O)c4ccc(C(=O)N5CCOCC5)cc43)nc2)c1` (stereo not drawn) [Example 320], for which the inhibition at 10 µM amounted to 109%.

For the origin of these results see patent publication US9315490B2, “2,5-substituted pyrimidines” (Grünenthal GmbH, priority 2014, dated 2016).
